19 molecules from patent US20240239799A1, “(S)-1-(5-((PYRIDIN-3-YL)THIO)PYRAZIN-2-YL)-4'H,6'H-SPIRO[PIPERIDINE-4,5'-PYRROLO [1,2-B]PYRAZOL]-4'-AMINE DERIVATIVES AND SIMILAR COMPOUNDS AS SHP2 INHIBITORS FOR THE TREATMENT OF E.G. CANCER” (C.N.C.C.S. S.C.A.R.L. COLLEZIONE NAZIONALE DEI COMPOSTI …, priority 2021, published 2024) can be followed below.

Each structure is given as a SMILES string. Read-outs that look alike come from different tables or passages of the source. Where only a bound is given, the exact number is not on record here.

For test [1], the target named is T1, SHP-2 enzyme (Met1-Leu525) (Homo sapiens, UniProt Q06124).
T1 construct: synthetized by Origene, Met1-Leu525, cat #TP750155; purchased Origene TP750155
T1 sequence (Q06124 1-525): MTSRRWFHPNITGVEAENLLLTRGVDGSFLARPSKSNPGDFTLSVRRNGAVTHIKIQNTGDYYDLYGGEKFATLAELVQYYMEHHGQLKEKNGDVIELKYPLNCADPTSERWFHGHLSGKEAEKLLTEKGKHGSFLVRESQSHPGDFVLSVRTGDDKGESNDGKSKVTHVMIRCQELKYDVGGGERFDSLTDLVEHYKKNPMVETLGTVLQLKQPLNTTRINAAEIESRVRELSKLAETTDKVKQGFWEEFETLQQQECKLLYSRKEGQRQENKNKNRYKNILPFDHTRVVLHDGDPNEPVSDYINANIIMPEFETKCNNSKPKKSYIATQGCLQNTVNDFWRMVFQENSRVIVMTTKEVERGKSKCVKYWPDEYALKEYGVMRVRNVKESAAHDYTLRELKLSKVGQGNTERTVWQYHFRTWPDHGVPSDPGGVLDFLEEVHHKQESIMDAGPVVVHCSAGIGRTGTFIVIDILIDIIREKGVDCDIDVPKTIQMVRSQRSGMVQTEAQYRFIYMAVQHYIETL
The experiment in a line: SHP2 inhibition enzymatic assay (DiFMUP substrate, IRS1 peptide activation). The note with it: 0.5 nM SHP-2, 500 nM IRS1 peptide, 75 μM DiFMUP; read-out: SHP2wt - IC50. It is filed as biochemical. On the procedure:
Assay volume of 20 μL/well was assembled in 384 well black polystyrene low-binding microplates (Greiner), using the following buffer: 60 mM HEPES pH 7.2, 75 mM NaCl, 75 mM KCl, 1 mM EDTA pH 8, 0.05% tween-20, 5 mM DTT. The SHP-2 enzyme (synthetized by Origene, Met1-Leu525, cat #TP750155) was used at a final concentration of 0.5 nM.
Briefly, DMSO serially diluted testing compounds were transferred to the bottom of the assay plate. SHP2 was then added together with the IRS1 peptide 30 min post incubation, the DiFMUP substrate was added to the reaction and incubated 30 min at rt. […] The fluorescence was detected by a microplate reader (Envision, PerkinElmer) according to the DiFMUP excitation and emission wavelength. The lower the fluorescence the higher the SHP2 inhibition.
The percentage inhibition is fitted against the compound dilutions with a four-parameter logistic regression. The inflection point (i.e. the concentration at which half-maximal inhibition is achieved) is the IC50.

Test [2] has as its system phospho-ERK1/2 (Thr202/Tyr204) in KYSE-520 cells. Nature of the test: Phospho-ERK cellular assay (TR-FRET). The note with it: read-out: pERK IC50. It counts as cell-based. The method, then:
ERK phosphorylation was detected using the “Advanced phospho-ERK1/2 (Thr202/Tyr204)” TR-FRET kit (Cisbio, Cat #64AERPEG/H), following the manufacturer reagents and instructions.
Briefly, 20.000/well KYSE-520 cells (DSMZ ACC 371) were plated in 6 μL RPMI-1640 (Invitrogen) growth medium, into 384 white low-volume high base TC microplates (Greiner). After an overnight incubation, cells were treated with DMSO serial diluted compounds and incubated for 2 h at 37° C. After incubation, 2 μL/well of 4X Lysis Buffer (Cisbio 64KL1FDF), were added and incubated with cells for 30 min on gentle shaking. Finally, lysates were added with 2 μL/well of Eu cryptate (donor) and D2 (acceptor) conjugated antibodies (as provided by the Cisbio kit #64AERPEG/H) diluted 1:100 in Detection Buffer (as provided by the Cisbio kit #64AERPEG/H). Plates were then sealed and incubated at rt in the dark. After an overnight incubation, the TR-FRET signal was detected on a suitable reader (Envision, PerkinElmer). The lower the TR-FRET signal the higher the higher the SHP2 inhibition in cells.
The activity of each compound dilution was calculated as percentage between vehicle DMSO treated cells and no cells, 0% inhibition and 100% inhibition respectively. The percentage activity is fitted against the compound dilutions with a four-parameter logistic regression. The inflection point (i.e. the concentration at which half-maximal inhibition is achieved) is the IC50.
(In TR-FRET formats the signal depends on donor and acceptor labels being close together.)

Where [3] appears, read: Homo sapiens, KYSE-520, 2 h, KYSE-520 cells, 2 h at 37° C.

As a reminder, the IC50 is the concentration that gives 50% inhibition. As to `N[C@@H]1c2ccnn2CC12CCN(c1cnc(Sc3ccnc(-n4cccn4)c3Cl)c3cncn13)CC2` [Example 75, (S)-1-(8-((3-chloro-2-(1H-pyrazol-1-yl)pyridin-4-yl)thio)imidazo[1,5-a]pyrazin-5-yl)-4′H,6′H-spiro[piperidine-4,5′-pyrrolo[1,2-b]pyrazol]-4′-amine], the IC50 in test [1] was at most 50 nM; in test [2] (setting [3]) it was 100 to 500 nM.

On to `N[C@@H]1c2ccnn2CC12CCN(c1cnc(Sc3cccc(Cl)c3Cl)cn1)CC2` [Example 83, (S)-1-(5-((2,3-dichlorophenyl)thio)pyrazin-2-yl)-4′H,6′H-spiro[piperidine-4,5′-pyrrolo[1,2-b]pyrazol]-4′-amine], for which the concentration for half-maximal inhibition (IC50) in test [1] was at most 50 nM; in test [2] (setting [3]), under 100 nM.

As to `Cc1nc(N2CCC3(CC2)Cn2cccc2[C@H]3N)cc(=O)n1-c1cccc(Cl)c1Cl` [Example 86, (S)-6-(1′-amino-1′H,3′H-spiro[piperidine-4,2′-pyrrolizin]-1-yl)-3-(2,3-dichlorophenyl)-2-methylpyrimidin-4(3H)-one], the IC50 is at most 50 nM in test [1] and 100 to 500 nM in test [2] (Homo sapiens, KYSE-520, 2 h).

Regarding `Cn1c(N2CCC3(CC2)Cn2nccc2[C@H]3N)ncc(Sc2ccnc(N)c2Cl)c1=O` [Example 76, (S)-5-((2-amino-3-chloropyridin-4-yl)thio)-2-(4′-amino-4′H,6′H-spiro[piperidine-4,5′-pyrrolo[1,2-b]pyrazol]-1-yl)-3-methylpyrimidin-4(3H)-one], the results for the half-maximal inhibitory concentration (IC50) in test [1] and in test [2] (setting [3]) were at most 50 nM and under 100 nM, respectively.

Take `N[C@@H]1c2ccnn2CC12CCN(c1cnc(Sc3ccnc(-n4cccc4)c3Cl)cn1)CC2` [Example 62, (S)-1-(5-((3-chloro-2-(1H-pyrrol-1-yl)pyridin-4-yl)thio)pyrazin-2-yl)-4′H,6′H-spiro[piperidine-4,5′-pyrrolo[1,2-b]pyrazol]-4′-amine]: the half-maximal inhibitory concentration (IC50) is at most 50 nM in test [1] and under 100 nM in test [2] (setting [3]).

Turning to `Cc1cc(C)n(-c2nccc(Sc3cnc(N4CCC5(CC4)Cn4nccc4[C@H]5N)cn3)c2Cl)n1` [Example 34, (S)-1-(5-((3-chloro-2-(3,5-dimethyl-1H-pyrazol-1-yl)pyridin-4-yl)thio)pyrazin-2-yl)-4′H,6′H-spiro[piperidine-4,5′-pyrrolo[1,2-b]pyrazol]-4′-amine], the concentration for half-maximal inhibition (IC50) in test [1] was at most 50 nM; in test [2] (setting [3]), under 100 nM.

Regarding `Cc1nc(N2CCC3(CC2)Cn2nccc2[C@H]3N)cc(=O)n1-c1cccc(Cl)c1Cl` (single isomer, unassigned) [Example 77a], the half-inhibitory concentration (IC50) was at most 50 nM in test [1] and 100 to 500 nM in test [2] (KYSE-520 cells, 2 h at 37° C.).

Regarding `Cc1nc(N2CCC3(CC2)Cn2nccc2[C@H]3N)c(CO)nc1Sc1ccnc(N)c1Cl` [Example 45, (S)-(6-((2-amino-3-chloropyridin-4-yl)thio)-3-(4′-amino-4′H,6′H-spiro[piperidine-4,5′-pyrrolo[1,2-b]pyrazol]-1-yl)-5-methylpyrazin-2-yl)methanol], the concentration for half-maximal inhibition (IC50) in test [1] is at most 50 nM; in test [2] (setting [3]) it was under 100 nM.

As for `N[C@@H]1c2ccnn2CC12CCN(c1cnc3nc(Sc4ccnc(-n5cccn5)c4Cl)ccc3n1)CC2` [Example 72, (S)-1-(6-((3-chloro-2-(1H-pyrazol-1-yl)pyridin-4-yl)thio)pyrido[2,3-b]pyrazin-2-yl)-4′H,6′H-spiro[piperidine-4,5′-pyrrolo[1,2-b]pyrazol]-4′-amine], the IC50 in test [1] was at most 50 nM; in test [2] (setting [3]), 100 to 500 nM.

Consider `Cn1c(N2CCC3(CC2)Cn2nccc2[C@H]3N)nc2[nH]nc(-c3ccnc(N)c3Cl)c2c1=O` [Example 46, (S)-3-(2-amino-3-chloropyridin-4-yl)-6-(4′-amino-4′H,6′H-spiro[piperidine-4,5′-pyrrolo[1,2-b]pyrazol]-1-yl)-5-methyl-1,5-dihydro-4H-pyrazolo[3,4-d]pyrimidin-4-one], for which the IC50 in test [1] is at most 50 nM; in test [2] (setting [3]), under 100 nM.

Consider `Nc1nccc(-c2n[nH]c3nc(N4CCC5(CC4)Cn4nccc4[C@H]5N)cnc23)c1Cl` [Example 40, (S)-1-(3-(2-amino-3-chloropyridin-4-yl)-1H-pyrazolo[3,4-b]pyrazin-6-yl)-4′H,6′H-spiro[piperidine-4,5′-pyrrolo[1,2-b]pyrazol]-4′-amine], for which the half-inhibitory concentration (IC50) in test [1] is at most 50 nM; in test [2] (setting [3]) it was under 100 nM.

With `Cc1nc(N2CCC3(CC2)Cn2nccc2[C@H]3N)c(Cl)c(=O)n1-c1cccc(Cl)c1Cl` (single isomer, unassigned) [Example 78a], the IC50 in test [1] was at most 50 nM; in test [2] (KYSE-520 cells, 2 h at 37° C.), 100 to 500 nM.

Regarding `N[C@@H]1c2ccnn2CC12CCN(c1cnc(Sc3ccn4cnnc4c3Cl)cn1)CC2` [Example 51, (S)-1-(5-((8-chloro-[1,2,4]triazolo[4,3-a]pyridin-7-yl)thio)pyrazin-2-yl)-4′H,6′H-spiro[piperidine-4,5′-pyrrolo[1,2-b]pyrazol]-4′-amine], the concentration for half-maximal inhibition (IC50) was at most 50 nM in test [1] and 100 to 500 nM in test [2] (setting [3]).

Take `N[C@@H]1c2ccnn2CC12CCN(c1cnc(SC3=C(Cl)C4=NC(=O)CN4C=C3)cn1)CC2` [Example 58, (S)-7-((5-(4′-amino-4′H,6′H-spiro[piperidine-4,5′-pyrrolo[1,2-b]pyrazol]-1-yl)pyrazin-2-yl)thio)-8-chloroimidazo[1,2-a]pyridin-2(3H)-one]: the IC50 in test [1] was at most 50 nM; in test [2] (Homo sapiens, KYSE-520 cells, 2 h at 37° C.), 100 to 500 nM.

As for `NC(=O)c1ccn(-c2nccc(Sc3cnc(N4CCC5(CC4)Cn4nccc4[C@H]5N)cn3)c2Cl)c1` [Example 66, (S)-1-(4-((5-(4′-amino-4′H,6′H-spiro[piperidine-4,5′-pyrrolo[1,2-b]pyrazol]-1-yl)pyrazin-2-yl)thio)-3-chloropyridin-2-yl)-1H-pyrrole-3-carboxamide], the results for the concentration for half-maximal inhibition (IC50) in test [1] and in test [2] (setting [3]) were at most 50 nM and under 100 nM, respectively.

`N[C@@H]1c2cccn2CC12CCN(c1cnc(Sc3ccnc(-n4cccn4)c3Cl)cn1)CC2` [Example 82, (S)-1-(5-((3-chloro-2-(1H-pyrazol-1-yl)pyridin-4-yl)thio)pyrazin-2-yl)-1′H,3′H-spiro[piperidine-4,2′-pyrrolizin]-1′-amine]: the IC50 in test [1] was at most 50 nM; in test [2] (setting [3]), under 100 nM.

In the case of `Cn1c(N2CCC3(CC2)Cn2nccc2[C@H]3N)nc2nc(Sc3ccnc(N)c3Cl)cnc21` [Example 74, (S)-1-(5-((2-amino-3-chloropyridin-4-yl)thio)-1-methyl-1H-imidazo[4,5-b]pyrazin-2-yl)-4′H,6′H-spiro[piperidine-4,5′-pyrrolo[1,2-b]pyrazol]-4′-amine], the results for the IC50 in test [1] and in test [2] (setting [3]) were 50 to 300 nM and over 500 nM, respectively.

With `CN(C)C(=O)c1cnn(-c2nccc(Sc3cnc(N4CCC5(CC4)Cn4nccc4[C@H]5N)cn3)c2Cl)c1` [Example 69, (S)-1-(4-((5-(4′-amino-4′H,6′H-spiro[piperidine-4,5′-pyrrolo[1,2-b]pyrazol]-1-yl)pyrazin-2-yl)thio)-3-chloropyridin-2-yl)-N,N-dimethyl-1H-pyrazole-4-carboxamide], the figures for the IC50 in test [1] and in test [2] (setting [3]) were at most 50 nM and under 100 nM, respectively.

Turning to `Nc1nc(N2CCC3(CC2)Cn2nccc2[C@H]3N)cnc1Sc1ccnc(N)c1Cl` [Example 4, (S)-1-(6-amino-5-((2-amino-3-chloropyridin-4-yl)thio)pyrazin-2-yl)-4′H,6′H-spiro[piperidine-4,5′-pyrrolo[1,2-b]pyrazol]-4′-amine], the IC50 in test [1] is at most 50 nM; in test [2] (setting [3]) it was under 100 nM.
